Values quoted from earlier work in paper PMC8004985, “Affinity Purification of Angiotensin Converting Enzyme Inhibitory Peptides from Wakame (Undaria Pinnatifida) Using Immobilized ACE on Magnetic Metal Organic Frameworks” (Marine Drugs, 2021).
Where two headings read alike, the source gives them in different places.

Experiments:
[1] = amino acid residue; source not given; cited from earlier work
ACE = settings: cited from earlier work
Text: Table 1 The summary of ACE inhibitory peptides by conventional approach and affinity purification on different medium. | column: IC50 || Table 2 The summary of ACE inhibitory peptides have similar structure with purified peptides KNFL from food protein. | column: IC50 (μM) || Researchers have investigated the structure-activity relationship of ACE inhibitor peptides, such as the peptide chain length, amino acid sequence, C- terminal, and N-terminal amino acid sequence. Most of the ACE inhibitors are reported to have small molecular weights (2–12 amino acids), and there are four amino acids in the newly identified peptide KNFL. […] In this study, the C-terminal amino acids (phenylalanine and leucine) of the KNFL peptide have stro ...

[2] = Wakame, conventional approach, ref [28]
[3] = Volutharpa ampullaceal perryi, affinity purification/ Zn-SBA-15-ACE, ref [12]

For `N=C(N)NCCC[C@H](N)C(=O)O` [arginine], the “Lipophilicity Parameters” value [1] is listed as −4.5.
In the case of `NC(=O)C[C@H](N)C(=O)O` [asparagine], the “Lipophilicity Parameters” value [1] is given as −3.5.
For `N[C@@H](CC(=O)O)C(=O)O` [aspartic acid], the “Lipophilicity Parameters” value [1] is listed as −3.5.
For `N[C@@H](CCC(=O)O)C(=O)O` [glutamic acid], the “Lipophilicity Parameters” value [1] is listed as −3.5.
For `NC(=O)CC[C@H](N)C(=O)O` [glutamine], the “Lipophilicity Parameters” value [1] is listed as −3.5.
In the case of `N[C@@H](Cc1c[nH]cn1)C(=O)O` [histidine], the “Lipophilicity Parameters” value [1] is given as −3.2.
In the case of `CC(C)C[C@H](N)C(=O)O` [leucine], the “Lipophilicity Parameters” value [1] is listed as 3.8.
In the case of `NCCCC[C@H](N)C(=O)O` [lysine], the “Lipophilicity Parameters” value [1] is listed as −3.9.
For `N[C@@H](CO)C(=O)O` [serine], the “Lipophilicity Parameters” value [1] is given as −0.8.
For AIYK, the IC50 (ACE; [2]) is listed as 213 µM.
For GMKCAF, the IC50 (ACE; lizard fish, affinity purification/ Magnetic agarose-ACE, ref [6]) is listed as 45.7 ± 1.1 µM.
In the case of HLHT, the IC50 (ACE; Pinctada fucata martensii, affinity purification/ IMAM @ mPEG, ref [10]) is given as 458.1 ± 3.24 µM.
For IVTNWDDMGK, the IC50 (ACE; [3]) is listed as 2080 µM.
In the case of KFYG, the IC50 (ACE; [2]) is given as 90.5 µM.
In the case of KNGDGY, the IC50 (ACE; Cuttlefish, ref [49]) is given as 51.6 µM.
For LLYQEPVLGPVR, the IC50 (ACE; casein, affinity purification/ IMAM @ mPEG, ref [9]) is given as 274 ± 5 µM.
In the case of RVCLP, the IC50 (ACE; lizard fish, conventional approach, ref [29]) is given as 175 µM.
For RYRP, the IC50 (ACE; lizard fish, affinity purification/ IMAC-Ni^2+, ref [39]) is given as 52 µM.
In the case of VGPAGRRG, the IC50 (ACE; [3]) is given as 4660 µM.
For WYLHYA, the IC50 (ACE; casein, affinity purification/ IMAC-Ni^2+, ref [41]) is listed as 16.2 µM.
For YKYY, the IC50 (ACE; [2]) is listed as 64.2 µM.
In the case of YNKL, the IC50 (ACE; [2]) is given as 21 µM.
